The source of these data is PubChem BioAssay AID488890 (Southern Research Specialized Biocontainment Screening …, 2010).

The structures appear in SMILES notation. Records with an inconclusive call do not appear. The source made the active and inactive calls. How the calls were made is not given here.

For the assay, the system named is Mycobacterium tuberculosis non-replicating, growth inhibition. As to the kind of experiment: growth inhibition of non-replicating M. tuberculosis (AID 488890).
`O=C(Nc1nc2ccccc2n1CCN1CCCC1)C1CCCCC1`: the IC50 was 17.8 µM (inactive).
In the case of `CCOC(=O)C(C)Oc1ccc(OCc2ccccc2)cc1` (configuration not stated), the half-maximal inhibitory concentration (IC50) is 2.24 µM.
The value for `c1ccc(Nc2nc(-c3ccccn3)cs2)cc1` was 2.66 µM.
For the compound `O=C(OCC(=O)N1CCC(c2ccccc2)=N1)c1ccc([N+](=O)[O-])s1`, the IC50 is 0.61 µM.
The value for `Cc1csc(NC(=O)c2cc([N+](=O)[O-])cc([N+](=O)[O-])c2)n1` was 7.76 µM.
The value for `COc1ccc(NC(=O)c2cnc(SC)nc2)cc1` was 28.9 µM (inactive); that for `O=C1CC(N2CCN(c3ccccc3)CC2)C(=O)N1CCc1ccccc1` (configuration not stated) was 14 µM (inactive); that for `Cc1ccc(OCC(=O)N2CCCc3ccccc32)cc1` was 6.25 µM.
Consider `OCC1(CCOc2ccccc2)CCN(Cc2cc(Cl)ccc2O)CC1`, for which the IC50 is 24.1 µM (inactive).
Take `O=C(COc1ccc(F)cc1)N/N=C/c1cccc2cccnc12`: the IC50 is 3.84 µM.
The value for `Cc1ccc(C(=O)C=CNNC(=O)c2ccccc2)cc1` was 2.15 µM; that for `CCN(CC)c1ccc(-c2sc(Nc3ccccc3)n[n+]2-c2ccc(F)cc2)cc1` was 9.04 µM.
The value for `O=C(CCc1ccccc1)NC1C2CC3CC(C2)CC1C3` (configuration not stated) was 4.71 µM.
The same measure for `O=C(O)CCCCCN1C(=O)/C(=C\c2ccncc2)SC1=S`: 11.2 µM (inactive); for `CCc1nnc(NC(=O)c2cc3ccccc3oc2=O)s1`: 2.75 µM.
Regarding `CC1(C)Oc2ccc(NC(=O)C3COc4ccccc4O3)cc2O1` (configuration not stated), the IC50 was 12.9 µM (inactive).
The same measure for `Cc1ccc(/C(O)=C/c2nc3ccccc3oc2=O)cc1`: 4.77 µM; for `C=CCn1c(O)c(C(C)=Nc2ccc(C(=O)OCC)cc2)c(=O)[nH]c1=O`: 7.05 µM; for `Fc1ccc(COc2ccc(-c3nnco3)cc2)cc1`: 10.8 µM (inactive).
As for `CCOc1ccccc1OC(=O)c1cc2ccccc2oc1=O`, the IC50 was 21.5 µM (inactive).
With `N=c1n(CCN2CCCCC2)c2ccccc2n1CC(=O)c1ccc(Cl)c(Cl)c1`, the IC50 is 21.5 µM (inactive).
The same measure for `OC(CNCC(c1ccc(Cl)cc1Cl)c1c[nH]c2ccccc12)c1ccccc1` (configuration not stated): 10.9 µM (inactive); for `Cc1ccc(C(=O)N/N=C\c2ccc[nH]2)cn1`: 16.9 µM (inactive); for `c1ccc(-c2cccc(-c3ccccn3)n2)nc1`: 19.7 µM (inactive).
For the compound `O=C(OCC(=O)N1CCCC1)c1cc(Br)ccc1Cl`, the IC50 was 6.94 µM.
The value for `CC1=CN2C(=N)/C(=C/c3ccc([N+](=O)[O-])o3)C(=O)N=C2S1` was 12.8 µM (inactive); that for `Cc1cc(C)n(-c2ccc(C(=O)Oc3ccc4c(c3)OCO4)cc2)n1` was 11.9 µM (inactive).
The value for `COC(=O)c1ccccc1NC(=O)C1CC(c2ccc(F)cc2)=NO1` (configuration not stated) was 10.2 µM (inactive); that for `O=C(Nc1nccs1)c1ccc(Br)cc1` was 39.5 µM (inactive).
The value for `COc1cccc2c1C(CO)N1C(C#N)C3CC(C(=O)O)C(C1C2)N3C` (configuration not stated) was 2.09 µM.
As for `Oc1ccc(Cl)cc1CNCc1ccc(F)cc1`, the IC50 was 11.1 µM (inactive).
For `Brc1ccc(OCCCCN2CCCCC2)cc1`, the IC50 is 41.7 µM (inactive).
The same measure for `O=C(COC(=O)CCc1c[nH]c2ccccc12)Nc1ccc([N+](=O)[O-])cc1`: 9.82 µM; for `O=C(NC(=S)NCCc1ccccc1)c1ccccc1`: 10.4 µM (inactive); for `O=C1/C(=C/C=C/c2ccccc2)Oc2c1ccc(O)c2CN1CCN(CCO)CC1`: 36.8 µM (inactive).
The value for `CC1=NN(C(=O)c2ccc(C)o2)C(O)(c2ccccc2)C1` (configuration not stated) was 3.05 µM; that for `CN(C)CC/C=C1/c2ccc(F)cc2Sc2ccc(Cl)cc21` was 8.11 µM; that for `CC(C)CN1C(=O)CC(Sc2ccccc2C(=O)O)C1=O` (configuration not stated) was 26.7 µM (inactive).
The value for `CC(C)(C)c1csc(NC(=O)c2ccccc2O)n1` was 19.6 µM (inactive).
As to `O=C1CC(N2CCC(c3nc4ccccc4o3)CC2)C(=O)N1` (configuration not stated), the IC50 is 16.3 µM (inactive).
The same measure for `Brc1ccc(-c2ccc(CNCc3ccccn3)o2)cc1`: 1.12 µM; for `CCCCCn1c(=O)c(C(=O)Nc2nc3ccccc3[nH]2)c(O)c2ccccc21`: 1.9 µM.
The same measure for `OC(CNCC1CCCO1)Cn1c2ccc(Cl)cc2c2cc(Cl)ccc21` (configuration not stated): 8.38 µM; for `CCOc1ccc(NC(=O)CCC(=O)N/N=C/c2ccc([N+](=O)[O-])s2)cc1`: 8.29 µM.
The same measure for `Cc1nc2ccc(OC(=O)c3ccccc3)cc2s1`: 20.9 µM (inactive).
Take `O=C(CN1CCOCC1)N/N=C/c1ccc(-c2ccc(Br)cc2)o1`: the IC50 was 4.3 µM.
The value for `O=C(Nc1ccc(F)cc1F)c1cc2ccccc2oc1=O` was 25.1 µM (inactive); that for `O=[N+]([O-])c1cncc([N+](=O)[O-])c1Nc1ccccc1Cl` was 5.36 µM; that for `CCOc1ccc(/C=N/OCC(=O)Nc2ccc3c(c2)OCO3)cc1` was 5.11 µM.
The same measure for `O=C(NC(=S)Nn1cnc2c(cnn2-c2ccccc2)c1=O)c1ccccc1`: 22.2 µM (inactive); for `CCc1cc2c3c(c1)C(C)CC(C)(C)N3C(=O)/C2=C1\SC(=O)NC1=O` (configuration not stated): 21.5 µM (inactive); for `CCOC(=O)Nc1cccc(OCC(=O)Nc2ccccc2OC)c1`: 16.6 µM (inactive).
The value for `O=C(N/N=C/c1ccc[nH]1)c1cccnc1` was 26.7 µM (inactive).
Consider `Cc1cccc(NC(=O)c2ccc([N+](=O)[O-])o2)c1C`, for which the IC50 is 6.39 µM.
The value for `COc1cc(CNCCc2ccccc2)cc(Br)c1OCC(=O)Nc1ccccc1C` was 8.58 µM.
The same measure for `O=C(N/N=C/c1ccc(Br)s1)c1cccnc1`: 9.43 µM.
The same measure for `CC(/C=C/c1cccc([N+](=O)[O-])c1)=N\NC(=O)c1ccncc1`: 1.2 µM.
For the compound `NCCOc1ccc(C23CC4CC(CC(C4)C2)C3)cc1`, the IC50 was 16 µM (inactive).
The same measure for `O=C(CC1CCCCC1)NCc1ccccc1`: 5.92 µM; for `CC(C)(C)c1ccc2c(c1)OC(C(=O)N/N=C\c1ccccn1)CO2` (configuration not stated): 4.8 µM; for `O=C(CCS(=O)(=O)c1ccccc1)Nc1nc(-c2ccccn2)cs1`: 11.1 µM (inactive).
The value for `CCc1cc(OCCCCNCc2ccccc2)ccc1Cl` was 11.3 µM (inactive); that for `Cc1cccc(OCCCCc2c(C)n[nH]c2C)c1` was 9.86 µM.
With `CCCCCn1c(=O)c(C(=O)Nc2cnccn2)c(O)c2ccccc21`, the IC50 was 2.55 µM.
The same measure for `O=C(COc1cccc2ccccc12)Nc1ccc(Cl)cc1C(=O)O`: 6.24 µM; for `Cc1cc(=O)n2cccc(O)c2n1`: 6.1 µM.
The value for `CC(NC(=O)c1cc([N+](=O)[O-])cc([N+](=O)[O-])c1)c1ccc(-n2ccnc2)cc1` (configuration not stated) was 5.42 µM; that for `CN1CCC(O)(c2cccs2)C(C(=O)c2cccs2)C1` (configuration not stated) was 2.35 µM.
The value for `Cc1ccccc1N1CCN(Cc2ccc([N+](=O)[O-])o2)CC1` was 3.25 µM; that for `COC(CNC(=O)c1ccc2c3c(onc13)-c1ccccc1C2=O)OC` was 2.4 µM; that for `O=[N+]([O-])c1cc(N=Nc2ccc3ccccc3c2)ccc1O` was 10.2 µM (inactive).
On to `O=C(Nc1ncc(Cc2ccccc2Cl)s1)C1=NCCN1`, for which the half-inhibitory concentration (IC50) was 4.18 µM.

Usually IC50 stands for the concentration that inhibits the measured activity by half.
